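In this assay, cells in 96-well plates receive the compound at five concentrations for 48 hours. Endpoints are linearly interpolated between the surrounding concentrations. The concentration for full growth arrest is given as TGI.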
What was measured:
Experiment in all cases: DTP human tumour cell line panel, 48 h
786-0 renal = system: 786-0 renal
A498 renal = system: A498 renal
A549 NSCLC = system: A549 NSCLC
ACHN renal = system: ACHN renal
CAKI-1 renal = system: CAKI-1 renal
CCRF-CEM leukemia = system: CCRF-CEM leukemia
COLO 205 colon = system: COLO 205 colon
DU-145 prostate = system: DU-145 prostate
EKVX NSCLC = system: EKVX NSCLC
HCC-2998 colon = system: HCC-2998 colon
HCT-116 colon = system: HCT-116 colon
HCT-15 colon = system: HCT-15 colon
HL-60(TB) leukemia = system: HL-60(TB) leukemia
HOP-62 NSCLC = system: HOP-62 NSCLC
HOP-92 NSCLC = system: HOP-92 NSCLC
HS 578T breast = system: HS 578T breast
HT29 colon = system: HT29 colon
IGROV1 ovarian = system: IGROV1 ovarian
K-562 leukemia = system: K-562 leukemia
KM12 colon = system: KM12 colon
LOX IMVI melanoma = system: LOX IMVI melanoma
M14 melanoma = system: M14 melanoma
MALME-3M melanoma = system: MALME-3M melanoma
MCF7 breast = system: MCF7 breast
MDA-MB-231 breast = system: MDA-MB-231 breast
MDA-MB-435 = system: MDA-MB-435
MDA-N = system: MDA-N
MOLT-4 leukemia = system: MOLT-4 leukemia
NCI-H226 lung = system: NCI-H226 lung
NCI-H23 lung = system: NCI-H23 lung
NCI-H460 lung = system: NCI-H460 lung
NCI-H522 lung = system: NCI-H522 lung
NCI/ADR-RES ovarian = system: NCI/ADR-RES ovarian
OVCAR-3 ovarian = system: OVCAR-3 ovarian
OVCAR-4 ovarian = system: OVCAR-4 ovarian
OVCAR-5 ovarian = system: OVCAR-5 ovarian
OVCAR-8 ovarian = system: OVCAR-8 ovarian
PC-3 prostate = system: PC-3 prostate
RPMI-8226 leukemia = system: RPMI-8226 leukemia
RXF 393 renal = system: RXF 393 renal
SF-268 CNS = system: SF-268 CNS
SF-295 CNS = system: SF-295 CNS
SF-539 CNS = system: SF-539 CNS
SK-MEL-2 melanoma = system: SK-MEL-2 melanoma
SK-MEL-28 melanoma = system: SK-MEL-28 melanoma
SK-MEL-5 melanoma = system: SK-MEL-5 melanoma
SK-OV-3 ovarian = system: SK-OV-3 ovarian
SN12C renal = system: SN12C renal
SNB-19 CNS = system: SNB-19 CNS
SNB-75 CNS = system: SNB-75 CNS
SR leukemia = system: SR leukemia
SW-620 colon = system: SW-620 colon
T-47D breast = system: T-47D breast
TK-10 renal = system: TK-10 renal
U251 CNS = system: U251 CNS
UACC-257 melanoma = system: UACC-257 melanoma
UACC-62 melanoma = system: UACC-62 melanoma
UO-31 renal = system: UO-31 renal

Measured: TGI

CCCNC(=S)N=Nc1c(O)[nH]c2ccccc12
> 100 µM: all assays above

— PubChem BioAssay (NCI)
